Data on one molecule can be found in paper PMC6332508, “A Promising PET Tracer for Imaging of α7 Nicotinic Acetylcholine Receptors in the Brain: Design, Synthesis, and in Vivo Evaluation of a Dibenzothiophene-Based Radioligand” (Molecules, 2015).

A short description of series [1]: In vitro radiochemical stability. The class given is physicochemical. The note with it: 40 °C, up to 90 min. As for the experimental part: (§1) in vitro radiochemical stability of [^18F]10a was investigated in 0.9% NaCl solution, PBS (pH 7.2), and 0.01 M Tris-HCl (pH 7.4 at 21 °C) at 40 °C and in EtOH at room temperature for up to 90 min. Samples were taken at 15, 30, 60, and 90 min of incubation time and analyzed by radio-TLC and radio-HPLC. Log D7.2 of [^18F]10a was experimentally determined in n-octanol/phosphate-buffered saline (PBS; 0.01 M, pH 7.2) at room temperature by the shake-flask method in multiple distribution. Measurement was performed twice in triplicate.

In another series the target is T1, α7 nAChR (Macaca mulatta, UniProt Q866A2).
T1 construct: from tissue; host or cells: brain of a living rhesus monkey
Briefly: Comparative PET study in a rhesus monkey. The class given is in vivo, rhesus monkey (Macaca mulatta). As for the experimental part:
One male rhesus monkey (Macaca mulatta, 6 years old, body weight = 10 kg) underwent two PET imaging sessions with [^18F]10a and [^18F]10b, respectively. The scans were conducted 19 days apart. The monkey was initially sedated by intramuscular ketamine at 10 mg∙kg^−1 at ~2 h before the PET scan and anesthetized by 1.5%–3% isoflurane throughout the imaging session. PET scan was performed using a FOCUS-220 PET scanner (Siemens Preclinical Solutions, Knoxville, TN, USA). After a transmission scan, 167 MBq of [^18F]10a (specific activity of 362 GBq∙μmol^−1) or 185 MBq of [^18F]10b (specific activity of 159 GBq·μmol^−1) were administered intravenously. Emission data were acquired in list mode for 240 min. Raw list-mode PET data was histogrammed (frames of 6 × 30 s; 3 × 1 min; 2 × 2 min; 46 × 5 min to scan termination) and reconstructed with 2D filtered back projection, using a 0.15 cm^−1 Shepp filter and including corrections for scanner normalization, detector dead time, randoms, and radiation scatter and attenuation. The PET images were then registered to MR images, acquired with a Siemens 3 T Trio scanner, with a 6-parameter rigid body registration. The MR native space was then normalized using nonlinear affine registration to a high-resolution rhesus monkey atlas using BioImage Suite 3.01 (http://www.bioimagesuite.org/index.html). Time-activity curves were extracted by mapping atlas-defined regions to PET native space using the optimal transformation matrices calculated in the registration and normalization steps. Regions extracted included amygdala, caudate, cerebellum, cingulate, cortical regions (frontal, occipital, and temporal cortex), hippocampus, putamen, thalamus, and pons.

Series [2] is described as follows: Metabolite analysis in pig plasma. The class given is in vivo, pigs. Here is the method: To control the quality of the K[^18F]F-Kryptofix®222/K2CO3-complex, reactions using ethylene glycol ditosylate were performed randomly. Radio-TLC of [^18F]10a and [^18F]10b was performed on Polygram® ALOX N/UV254 plates (Macherey-Nagel GmbH & Co. KG) with dichloromethane/methanol (9:1, v/v). The spots of the references were visualized using UV light at 254 nm.
Arterial blood was sampled using a peristaltic pump during the first 20 min of the scan followed by manual sampling at 25, 30, 40, 50, 60, 90, 120, 150, 180, 210, and 240 min after injection. Plasma was obtained by centrifugation (13,000 rpm, 2 min at 21 °C) and total radioactivity concentration was measured using a gamma-counter (1470 Wizard; PerkinElmer, Shelton, CT, USA) cross-calibrated to the PET scanner. […]
The plasma input function was corrected for the presence of radioactive metabolites by determination of the parent fraction as described previously. Plasma samples were de-proteinized by addition of ice-cold acetonitrile (500 μL MeCN/100 μL plasma) followed by centrifugation (13,000 rpm, 10 min). Aliquots of the original plasma sample and of the supernatant obtained after centrifugation were counted for radioactivity, and the supernatant was analyzed by radio-HPLC following the chromatographic methods described in quality control. The parent fraction as a function of time was fitted iteratively with the Levenberg-Marquardt algorithm, including decay correction, to calculate metabolite corrected input function.

Series [3] is described as follows: Distribution coefficient, shake-flask method, n-octanol/PBS. The class given is physicochemical. The note with it: n-octanol/phosphate-buffered saline; n-octanol-PBS, pH 7.2, shake-flask, n = 3; read-out: log D7.2. Here is the method: as §1

T1 sequence (Q866A2 23-502): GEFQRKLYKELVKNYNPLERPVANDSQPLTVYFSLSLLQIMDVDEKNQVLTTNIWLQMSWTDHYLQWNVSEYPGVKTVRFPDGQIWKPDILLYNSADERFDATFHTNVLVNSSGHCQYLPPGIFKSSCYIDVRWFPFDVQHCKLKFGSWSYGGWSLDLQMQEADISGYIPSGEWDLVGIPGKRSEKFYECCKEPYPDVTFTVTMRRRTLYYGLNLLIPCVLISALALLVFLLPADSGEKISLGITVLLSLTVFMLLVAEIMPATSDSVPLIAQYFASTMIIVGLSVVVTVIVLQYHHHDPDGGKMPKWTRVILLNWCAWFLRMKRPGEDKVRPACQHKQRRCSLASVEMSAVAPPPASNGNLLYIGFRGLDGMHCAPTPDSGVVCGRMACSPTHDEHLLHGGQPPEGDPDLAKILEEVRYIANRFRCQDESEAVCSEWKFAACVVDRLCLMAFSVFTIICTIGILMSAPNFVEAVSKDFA

On to `O=S1(=O)c2ccc([18F])cc2-c2ccc(N3CCN4CCC3CC4)cc21` [[^18F]10a], for which, in series [1], the “stability in physiological solutions and organic solvents” value was “stable”. The “total volume of distribution VT” value came to 28.5 mL∙cm^−3 at α7 nAChR (cerebellum) and 48.1 mL∙cm^−3 on α7 nAChR (thalamus). Also, the figures for the “Parent fraction of total radioactivity in plasma” value in series [2] (2 min p.i.), in series [2] (60 min p.i.) and in series [2] (120 min p.i.) were 88%, 24% and 19%, respectively. Besides, in series [3], the logD was 1.3 ± 0.1.
